Results from US9073880B2, “2-(2-phenylethenyl) 1,3-benzodiazepine derivatives useful for the treatment of cancer” (Yissum Research Development Company of the Hebrew …, priority 2010, dated 2015).

Legend:
Assay type in all cases: cell-based, human
IRS1 and IRS2 = IRS1 and IRS2 serine phosphorylation in A375 cells (western blot); settings: melanoma A375 cells treated 4 hr, 1 and 3 μM; FIG. 4
Description: Tyrosine autophosphorylation of the β-subunit of IGF-1R as well as downstream signaling induced by IGF-1R were assayed in human breast cancer MCF7 cells and in melanoma A375 cells. Cells were seeded in 6-well plates (250,000 A375 cells/well and 300,000 MCF7 cells/well) and 24 hours later medium was replaced by serum-free medium (RPMI supplemented with 100 units/ml penicillin and 100 μg/ml streptomycin). MCF7 cells were exposed for 48 hr to compound 3 at 10 μM concentration, and then stimulated for 5 minutes with 50 ng/ml IGF-1, washed twice with PBS and lysed by boiling sample buffer (10% glycerol, 50 mM Tris-HCl, pH 6.8, 3% SDS, and 5% (3-mercaptoethanol). Equal amounts of protein per lane were separated by 8% SDS-PAGE and transferred to a nitrocellulose membrane (Sartorius AG). Phosphorylated proteins were immunoblotted with anti-phosphoIGF-1R (pIGF-1R), anti-phosphotyrosine-IRS1 (pY-IRS I) and anti-phospho(T308)Akt (pPKB) antibodies. Detection was performed with horseradish peroxidase-conjugated secondary antibody using the ECL system. […]
In addition, lysates of human melanoma A375 cells were prepared from cells exposed to compound 3 at 1 and 3 μM concentrations in serum-free medium. […] In this experiment the phosphorylated form of IRS1 on Serine-636/639 and the levels of IRS2 were detected as well.

IRS1 & IRS2 = assay: IRS1 and IRS2 levels in A375 cells (Example 5)
Description: (§1) The effect of compound 5 on IRS1 & IRS2 levels and its effect on IGF1-induced Akt/PKB activation and apoptosis in melanoma A375 cells were tested. Cells were seeded in 6-well plates (150,000 A375 cells/well) and 24 hours later medium was replaced by serum-free medium (RPMI supplemented with 100 units/ml penicillin and 100 μg/ml streptomycin), […], and then stimulated for 5 minutes with 50 ng/ml IGF-1, washed twice with PBS and lysed by boiling sample buffer (10% glycerol, 50 mM Tris-HCl, pH 6.8, 3% SDS, and 5% β-mercaptoethanol). Equal amounts of protein per lane were separated by 8% SDS-PAGE and transferred to a nitrocellulose membrane (Sartorius AG). To detect the inhibition of the Akt/PKB activation, phosphorylated proteins were immunoblotted with anti-phospho(T308)Akt (pT308-PKB) and anti-phospho-Tuberin/TSC2 (pTuberin) antibodies. To visualize cell death induced by compound 5, the intact and the cleaved PARP were immunoblotted with anti-PARP antibody. The changes in the levels of IRS1 and IRS2 were detected with specific antibodies. Detection was performed with horseradish peroxidase-conjugated secondary antibody using the ECL system. Blots were then stripped of antibodies, blocked with TBST with 5% low fat milk and re-probed with antibodies detecting both the phosphorylated and the non-phosphorylated Akt/PKB. […]

Akt/PKB pathway = assay: IGF1-induced Akt/PKB activation in A375 cells (Example 5)
Description: as §1

[1] = 5 μM for 4 hr, washed, 24 hr after washout, FIG. 6C

Compound	IRS1 and IRS2 serine phosphorylation (IRS1 and IRS2)	IRS1 and IRS2 levels (IRS1 & IRS2; 3 μM, 48 hr, FIG. 6B)	levels of IRS1 & IRS2 after washout (IRS1 & IRS2; [1])	IGF1-induced activation of the Akt/PKB pathway (Akt/PKB pathway; 3 μM, 48 hr, 50 ng/ml IGF-1 5 minutes, FIG. 6B)	IGF1-induced activation of PKB/Akt after washout (Akt/PKB pathway; [1])
O=c1c(O)cc2cnc(/C=C/c3cc(O)c(O)c(Br)c3)sc-2c1O [Compound 3]	induction of IRS1 and IRS2 serine phosphorylation	–	–	–	–
O=c1c(O)cc2cnc(/C=C/c3ccc(O)c(O)c3Br)sc-2c1O [Compound 5]	–	induced a decrease in IRS1 and IRS2 levels	remained low	blocked the IGF1-induced activation of the Akt/PKB pathway	blocked
